Patent publication US5057520A, “7-(peptidylpyrolidinyl)naphthyridine antibacterial compounds” (Abbott Laboratories, priority 1989, dated 1991)
≈ marks a conversion by molar mass, not a printed value. Counter-ions that a name gives are not always drawn. Like-named read-outs stand apart in the source and are kept apart here.

Experiments:
[1] = test system: E. Coli Juhl; assay: Second in vitro MIC test, Brain Heart Infusion Broth (BHIB); format: cell-based
[2] = test system: Strep. pyogenes EES 61; assay: as above; format: cell-based
[3] = test system: Stap. Aureus NCTC 10649; assay: Acute mouse protection test; format: in vivo; conditions: mice infected i.p. with Stap. Aureus NCTC 10649, observed 7 days; for SC (ED50): SC dosing at 1 and 5 hours post-infection; for Oral (ED50): oral dosing at 1 and 5 hours post-infection
[4] = test system: Ps. Aeruginosa A5007; assay: Second in vitro MIC test, Brain Heart Infusion Broth (BHIB); format: cell-based
[5] = Conversion of prodrug to parent drug in whole blood at 37° C.; format: in vitro ADME, Dog
Experimental: (§1) An aqueous solution of prodrug (Z) is spiked into fresh whole blood containing sodium heparin as an anticoagulant. The sample is mixed gently by inversion and placed in a 37° waterbath. At selected time intervals an 0.5 ml aliquot of blood is removed and placed in a chilled 1.5 ml centrifuge tube (ice temperature). Samples are centrifuges at 13,000 rpm for two minutes to separate plasma. An 0.2 ml aliquot of the plasma sample is combined with 0.2 ml internal standard (7-(4-amino-2-methyl-1-pyrrolidinyl)-1-(2,4-difluorophenyl)-6-fluoro-1,4-d ihydro-4-oxo-1,8-naphthyridine-3-carboxylic acid in 0.2M sodium phosphate pH 7.2 buffer) and 6 mls CH2 Cl2 :EtoH (9:1 by volume). Samples are capped and shaken gently for 10 minutes. Samples are centrifuges at 2500 rpm for 10 minutes (4° C.). The aqueous layer is aspirated to waste and the organic layer is transferred to a conical centrifuge tube and evaporated to dryness with a stream of dry air and low heat ([…]). Samples are reconstituted with 0.2 ml mobile phase followed by vortexing. Samples are centrifuges at 2500 rpm for 10 minutes to separate precipitate. The supernatant is transferred to a WISP vial with plastic insert for HPLC analysis.

[6] = test system: P. Aeruginosa A5007; assay: Acute mouse protection test; format: in vivo; conditions: mice infected i.p. with P. Aeruginosa A5007, observed 7 days; for SC (ED50): SC dosing at 1 and 5 hours post-infection; for Oral (ED50): oral dosing at 1 and 5 hours post-infection
[7] = test system: Stap. Aureus CMX 553; assay: Second in vitro MIC test, Brain Heart Infusion Broth (BHIB); format: cell-based
[8] = Conversion of prodrug to parent drug in whole blood at 37° C.; format: in vitro ADME, Rat
Experimental: as §1

[9] = test system: PSEUDOMONAS AERUGINOSA BMH10; assay: In vitro MIC, agar dilution (BHIA); format: cell-based
[10] = test system: PSEUDOMONAS AERUGINOSA K799/61; assay: In vitro MIC, agar dilution (BHIA); format: cell-based
[11] = test system: STREPTOCOCCUS AGALACTIAE CMX 508; assay: In vitro MIC, agar dilution (BHIA); format: cell-based; conditions: STREPTOCOCCUS AGALACTIAE CMX 508
[12] = test system: MICROCOCCUS LUTEUS ATCC 9341; assay: In vitro MIC, agar dilution (BHIA); format: cell-based
[13] = test system: PSEUDOMONAS CEPACIA 296I; assay: In vitro MIC, agar dilution (BHIA); format: cell-based
[14] = test system: STREPTOCOCCUS PYOGENES 2548 INDUC; assay: In vitro MIC, agar dilution (BHIA); format: cell-based
[15] = test system: PSEUDOMONAS AERUGINOSA A5007; assay: In vitro MIC, agar dilution (BHIA); format: cell-based
[16] = test system: PSEUDOMONAS AERUGINOSA K799/WT; assay: In vitro MIC, agar dilution (BHIA); format: cell-based
[17] = test system: MICROCOCCUS LUTEUS ATCC 4698; assay: In vitro MIC, agar dilution (BHIA); format: cell-based
[18] = test system: ESCHERICHIA COLI H560; assay: In vitro MIC, agar dilution (BHIA); format: cell-based
Description: The MIC results are in ug/ml.

[19] = test system: ESCHERICHIA COLI JUHL; assay: In vitro MIC, agar dilution (BHIA); format: cell-based
[20] = test system: STREPTOCOCCUS PYOGENES 930 CONST; assay: In vitro MIC, agar dilution (BHIA); format: cell-based
[21] = test system: ENTEROCOCCUS FAECIUM ATCC 8043; assay: In vitro MIC, agar dilution (BHIA); format: cell-based
[22] = test system: STREPTOCOCCUS BOVIS A5169; assay: In vitro MIC, agar dilution (BHIA); format: cell-based; conditions: STREPTOCOCCUS BOVIS A5169
[23] = test system: STREPTOCOCCUS PYOGENES EES61; assay: In vitro MIC, agar dilution (BHIA); format: cell-based; conditions: STREPTOCOCCUS PYOGENES EES61
[24] = test system: KLEBSIELLA PNEUMONIAE ATCC 8045; assay: In vitro MIC, agar dilution (BHIA); format: cell-based
[25] = Conversion of prodrug to parent drug in whole blood at 37° C.; format: in vitro ADME, Human
Experimental: as §1

[26] = test system: E. Coli Juhl; assay: Acute mouse protection test; format: in vivo; conditions: mice infected i.p. with E. Coli JUHL, observed 7 days; for SC (ED50): SC dosing at 1 and 5 hours post-infection; for Oral (ED50): oral dosing at 1 and 5 hours post-infection
[27] = test system: PROVIDENCIA STUARTII CMX 640; assay: In vitro MIC, agar dilution (BHIA); format: cell-based; conditions: read-out: MIC

Molecule	MIC [1] [µg/mL]	MIC [2] [µg/mL]	SC (ED50) [3] [mg/kg/day]	Oral (ED50) [3] [mg/kg/day]	MIC [4] [µg/mL]	Half Life Dog [5]	SC (ED50) [6] [mg/kg/day]	Oral (ED50) [6] [mg/kg/day]	MIC [7] [µg/mL]	Solubility pH 7.4 [mg/ml]	SC (ED50) [26] [mg/kg/day]	Oral (ED50) [26] [mg/kg/day]	also measured
CSCCC(N)C(=O)NC1CCN(c2nc3c(cc2F)c(=O)c(C(=O)O)cn3-c2ccc(F)cc2F)C1 (stereo not shown) [Example 23]	3.12 (≈ 5.83 µM)	3.12 (≈ 5.83 µM)	0.5	1.5	5.0 (≈ 9.34 µM)	99.1 s	3.1	11.5	3.12 (≈ 5.83 µM)				
NC(Cc1ccc(O)cc1)C(=O)NC1CCN(c2nc3c(cc2F)c(=O)c(C(=O)O)cn3-c2ccc(F)cc2F)C1 (stereo not shown) [Example 13]	12.5 (≈ 22 µM)	12.5 (≈ 22 µM)	0.4	1.7	50 (≈ 88.1 µM)		9.1	15.1	12.5 (≈ 22 µM)	0.06			
7-[3-Norvaline-amino-1-pyrrolidinyl]-1-(2,4-difluorophenyl)-6-fluoro-1,4-di hydro-4-oxo-1,8-naphthyridine-3-carboxylic acid hydrochloride [Example 2b]													Half Life Rat [8]: 0.678 min; MIC [9]: 6.2 µg/mL; MIC [10]: .39 µg/mL; MIC [11]: 1.56 µg/mL; MIC [12]: 25 µg/mL; MIC [13]: 50 µg/mL; MIC [14]: .39 µg/mL; MIC [15]: 12.5 µg/mL; MIC [16]: 6.2 µg/mL; MIC [17]: 25 µg/mL; MIC [18]: .78 µg/mL; MIC [19]: .78 µg/mL; MIC [20]: .78 µg/mL; MIC [21]: .78 µg/mL; MIC [22]: 1.56 µg/mL; MIC [23]: 1.56 µg/mL; MIC [24]: .39 µg/mL; Half Life Human [25]: 75.5 s
NCC(=O)NC1CCN(c2nc3c(cc2F)c(=O)c(C(=O)O)cn3-c2ccc(F)cc2F)C1 (stereo not shown) [Example 7]	0.78 (≈ 1.69 µM)	0.78 (≈ 1.69 µM)	0.9	2.4	12.5 (≈ 27.1 µM)		4.2	11.4	1.56 (≈ 3.38 µM)		0.3	5.0	
CCC[C@H](NC(=O)CNC(=O)CN)C(=O)NC1CCN(c2nc3c(cc2F)c(=O)c(C(=O)O)cn3-c2ccc(F)cc2F)C1 (stereo partly shown) [Example 30]	25 (≈ 40.5 µM)	100 (≈ 162 µM)	0.7	2.2	> 100		4.8	3.3	25 (≈ 40.5 µM)				
CC(N)C(=O)NC1CCN(c2nc3c(cc2F)c(=O)c(C(=O)O)cn3-c2ccc(F)cc2F)C1 (stereo not shown) [Example 17]	0.5 (≈ 1.05 µM)		0.7	1.7	16 (≈ 33.7 µM)	97.0 s	5.7	12.5	2.0 (≈ 4.21 µM)	0.12	0.4	2.0	
CC(C)CC(N)C(=O)NC1CCN(c2nc3c(cc2F)c(=O)c(C(=O)O)cn3-c2ccc(F)cc2F)C1 (stereo not shown) [Example 21]	1.56 (≈ 3.01 µM)	6.2 (≈ 12 µM)	0.5	2.4	25 (≈ 48.3 µM)	55.8 s	3.9	12.5	1.56 (≈ 3.01 µM)	0.14			
O=C(O)c1cn(-c2ccc(F)cc2F)c2nc(N3CCC(NC(=O)C4CCCN4)C3)c(F)cc2c1=O (stereo not shown) [Example 28]	1.56 (≈ 3.11 µM)	1.56 (≈ 3.11 µM)	0.5	3.2	12.5 (≈ 24.9 µM)	41 m	3.1	51.3	1.56 (≈ 3.11 µM)				
NC1CCN(c2nc3c(cc2F)c(=O)c(C(=O)O)cn3-c2ccc(F)cc2F)C1 (stereo not shown) [tosufloxacin, 7-(3-amino-1-pyrrolidinyl)-6-fluoro,1-(2,4-difluorophenyl)-1,4-dihydro-4-o xo-1,8-naphthyridine 3-carboxylic acid, reference compound]			0.6	1.5			> 25	6.2			0.2	0.9	MIC [27]: 1.56 µg/mL (≈ 3.86 µM); MIC ([12]; ATCC9341, read-out: MIC): 1.56 µg/mL (≈ 3.86 µM); MIC ([13]; Burkholderia cepacia, read-out: MIC): 3.1 µg/mL (≈ 7.67 µM); MIC ([15]; read-out: MIC): 0.78 µg/mL (≈ 1.93 µM); MIC ([16]; read-out: MIC): 0.78 µg/mL (≈ 1.93 µM); MIC ([17]; ATCC4698, read-out: MIC): 0.78 µg/mL (≈ 1.93 µM)
CCC[C@H](NC(=O)[C@@H](N)CCC)C(=O)NC1CCN(c2nc3c(cc2F)c(=O)c(C(=O)O)cn3-c2ccc(F)cc2F)C1 (stereo partly drawn) [Example 3b, 7-(3-L-Norvaline-L-Norvalineamino-1-pyrrolidinyl)-1-(2,4-difluorophenyl)-6-fluoro-1,4-dihydro-4-oxo-1,8-naphthyridine-3-carboxylic acid hydrochloride]		12.5	0.5	1.8			6.2	9.1			0.5	4.0	Half Life Rat ([8]; conversion to parent drug in rat whole blood at 37° C., seconds): 0.858 min; Half Life Dog ([5]; conversion to parent drug in dog whole blood at 37° C., seconds): 86.5 s; Half Life Human ([25]; conversion to parent drug in human whole blood at 37° C., minutes): 2.1 m
